From US20230255934A1, “NURR1 RECEPTOR MODULATORS AND USES THEREOF” (The Regents of the University of California, priority 2020, published 2023)
Substitutions are numbered along the chain they refer to. “Also recorded” adds a separate entry of the source. Read-outs that look alike come from different tables or passages of the source.

How the values were obtained:
Nurr1 LBD (wildtype) = target: T1, Nurr1 LBD (wildtype) (Homo sapiens, UniProt P43354); assay: Microscale thermophoresis (MST) binding to wildtype Nurr1 LBD; conditions: for Binding to the Nurr1 LBD (in words): MST; for Kd: read-out: KD; for Amplitude: Table 1, MST amplitude, WT; for Response Amplitude: Table 2, MST, Wildtype
T1 construct: made in house
T1 sequence (P43354 with tags, fused parts or gaps): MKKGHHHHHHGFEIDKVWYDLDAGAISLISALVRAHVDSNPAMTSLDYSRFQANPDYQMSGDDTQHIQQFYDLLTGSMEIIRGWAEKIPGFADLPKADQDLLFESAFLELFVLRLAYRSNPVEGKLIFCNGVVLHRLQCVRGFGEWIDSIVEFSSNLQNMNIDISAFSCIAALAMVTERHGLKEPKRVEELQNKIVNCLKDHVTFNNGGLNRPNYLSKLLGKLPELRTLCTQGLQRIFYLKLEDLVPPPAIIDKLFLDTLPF
Experimental: (§1) Concentration-dependent association of the indoles with the Nurr1 LBD was carried out using microscale thermophoresis. Stock solutions (10 mM in DMSO) of each indole were serially diluted (200 μM indole, 0.5× dilutions down to 0.0061 μM) in MST buffer (25 mM HEPES, pH 7.4, 150 mM NaCl, and 0.1% Pluronic F127) containing 2% DMSO. The dilutions were carried out with 4% DMSO in the MST buffer for a total of 16 concentrations. Equivalent volumes and concentrations of the fluorescently labeled Nurr1 LBD in MST buffer were added to each ligand dilution in the series to reach a final concentration of 75 nM labeled protein. After incubating for 20 minutes, the samples were loaded into Monolith NT.115 Capillaries (Nanotemper).
(§2) Data were collected using the Monolith NT.115 System (Nanotemper), with settings for all samples at 40% excitation power and 40% MST power. The initial fluorescence was recorded for 3 sec and the thermophoresis fluorescence response was recorded for 20 sec. The data was inspected with Palmist software^5, and data points affected by initial fluorescence quenching or photobleaching were eliminated. The fluorescent response for each sample was normalized to the initial fluorescence using Palmist software to provide the values of thermophoresis (Fn). The resulting data was used to generate a plot of the change in thermophoresis (Fn-Fn0, where Fn=thermophoresis and Fn0=thermophoresis response in unbound range) versus concentration of the ligand. GraphPad Prism v. 8.3.0 software was used to fit the resulting data to a mass action equation for a specific binding with Hill slope, solving for KD: Fn-Fn0═Fmax·[L]^n/(KD^n+[L]^n), where Fmax=maximum amplitude of thermophoresis, [L]=concentration of the ligand at a specific point, KD=dissociation constant, nH=Hill Coefficient.
To investigate the potential impact of compound nano-aggregation on binding affinity, we used dynamic light scattering to inspect the aggregation of 5-chlorindole in solution and repeated the MST binding experiments in the presence of increasing concentrations of the surfactant Pluoronic F127 (FIGS. 12A-12D). […] As well, increasing concentrations of the surfactant Pluronic F127 had small effects (<2-fold) on the affinity of 5-chloroindole for the Nurr1 LBD (FIGS. 12A-12D).

[1] = target: T2, Nurr1 LBD Arg563Ala + His516Ala (Homo sapiens, UniProt P43354, H516A/R563A); assay: MST binding to Arg563Ala + His516Ala double mutant Nurr1 LBD; conditions: for Amplitude: Table 1, MST amplitude, H516A/R563A; for Response Amplitude: Table 2, MST, Arg563Ala + His516Ala
T2 construct: Mutants of LAP2 Nurr1 were prepared by GenScript starting from LAP2 Nurr1 vector; made in house
T2 sequence (P43354 with tags, fused parts or gaps H516A/R563A): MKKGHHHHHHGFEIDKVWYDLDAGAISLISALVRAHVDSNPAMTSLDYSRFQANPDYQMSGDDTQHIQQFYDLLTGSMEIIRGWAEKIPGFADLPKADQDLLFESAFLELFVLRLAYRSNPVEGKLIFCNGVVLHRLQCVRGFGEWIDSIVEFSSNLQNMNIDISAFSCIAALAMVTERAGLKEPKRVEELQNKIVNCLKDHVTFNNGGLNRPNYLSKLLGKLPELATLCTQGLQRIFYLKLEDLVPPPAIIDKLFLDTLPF
Experimental: (§3) The plasmid used for the expression of LAP2-tagged Nurr1 LBDs (LAP2 Nurr1) was prepared by GenScript (Piscataway, N.J.) as the product of gene synthesis and subcloning into pET-21a(+) Vector (GenScript) using the Ndel and Xhol sites within the MCS. Mutants of LAP2 Nurr1 were prepared by GenScript starting from LAP2 Nurr1 vector.
as §1, §2

Nurr1 LBD His516Ala = target: T3, Nurr1 LBD His516Ala (Homo sapiens, UniProt P43354, H516A); assay: MST binding to His516Ala mutant Nurr1 LBD; conditions: for Amplitude (% change) / KD (% change): Table 1, H516 relative to WT; for Amplitude: Table 1, MST amplitude, H516; for Response Amplitude: Table 2, MST, His516Ala
T3 construct: Mutants of LAP2 Nurr1 were prepared by GenScript starting from LAP2 Nurr1 vector; made in house
T3 sequence (P43354 with tags, fused parts or gaps H516A): as the sequence (P43354 with tags, fused parts or gaps) above, with H180A counted along it
Experimental: as §3, §1, §2

Nurr1 LBD Arg563Ala = target: T4, Nurr1 LBD Arg563Ala (Homo sapiens, UniProt P43354, R563A); assay: MST binding to Arg563Ala mutant Nurr1 LBD; conditions: for Amplitude: Table 1, MST amplitude, R563A; for Response Amplitude: Table 2, MST, Arg563Ala
T4 construct: Mutants of LAP2 Nurr1 were prepared by GenScript starting from LAP2 Nurr1 vector; made in house
T4 sequence (P43354 with tags, fused parts or gaps R563A): T2 sequence (P43354 with tags, fused parts or gaps H516A/R563A) with A180H
Experimental: as §3, §1, §2

[2] = Table 1, H516A/R563A relative to WT
[3] = Table 1, Nurr1 variant H516, read-out: KD
[4] = Table 2, His516Ala, read-out: Affinity (KD)

SMILES | Binding to the Nurr1 LBD (in words) (Nurr1 LBD (wildtype)) | Kd (Nurr1 LBD (wildtype); Nurr1 LBD) | Amplitude (Nurr1 LBD (wildtype)) | Kd (Nurr1 LBD (wildtype); Table 1, Nurr1 variant WT) | Response Amplitude (Nurr1 LBD (wildtype)) | Amplitude (% change) [1, 2] | Amplitude [1] | Response Amplitude [1] | Amplitude (% change) (Nurr1 LBD His516Ala) | KD (% change) (Nurr1 LBD His516Ala) | Amplitude (Nurr1 LBD His516Ala) | Kd (Nurr1 LBD His516Ala; [3]) | Kd (Nurr1 LBD His516Ala; [4]) | Response Amplitude (Nurr1 LBD His516Ala) | Amplitude (Nurr1 LBD Arg563Ala) | Amplitude (% change) (Nurr1 LBD Arg563Ala; Table 1, R563A relative to WT) | Response Amplitude (Nurr1 LBD Arg563Ala) | further results
Brc1ccc2[nH]ccc2c1 [5-bromoindole] | saturable binding | 5 µM | 72 + 8 | 10 µM | 50 + 4 | ≥−86% | - (≤10) | ≤10 (****) | −43% | +10% | 41 + 5 | 11 µM | 7.3 µM | 33 + 5 (*) | ≤10 | ≥−86% | ≤10 (****) | Amplitude (% change) (Nurr1 LBD (wildtype); Table 1, WT (reference)): 0; Binding to Arg563Ala + His516Ala mutant Nurr1 LBD (in words) ([1]; MST): completely eliminated; Binding affinity for His516Ala mutant versus wildtype (in words) (Nurr1 LBD His516Ala; MST): statistically unchanged; Binding to Arg563Ala mutant Nurr1 LBD (in words) (Nurr1 LBD Arg563Ala; MST): completely eliminated
Clc1ccc2[nH]ccc2c1 [5-chloroindole] | saturable binding; also recorded: comparable to DHI | 15 µM | 68 + 4 | 25 µM | 54 + 2 | −62% | 26 + 2 | 23 + 1 (****) | −50% | −36% | 34 + 4 | 16 µM | 8.6 µM | 25 + 2 (****) | 23 + 2 | −66% | 19 + 2 (****) | Hill coefficient nH (Nurr1 LBD (wildtype); 0.1% Pluronic F127): 2; Hill coefficient nH (Nurr1 LBD (wildtype); 0.2% Pluronic F127): 2; Kd (Nurr1 LBD (wildtype); 0.2% Pluronic F127): 8.3 ± 0.7 µM; Hill coefficient nH (Nurr1 LBD (wildtype); 0.5% Pluronic F127): 1; Kd (Nurr1 LBD (wildtype); 0.5% Pluronic F127): 10.9 ± 0.3 µM; Hill coefficient nH (Nurr1 LBD (wildtype); 1.0% Pluronic F127): 1; Kd (Nurr1 LBD (wildtype); 1.0% Pluronic F127): 9.1 ± 0.4 µM; KD (% change) [1, 2]: −68%; Kd ([1]; Table 1, Nurr1 variant H516A/R563A, read-out: KD): 8 µM; Kd ([1]; Table 2, Arg563Ala + His516Ala, read-out: Affinity (KD)): 7.3 µM; Kd (Nurr1 LBD Arg563Ala; Table 1, Nurr1 variant R563A, read-out: KD): 13 µM; KD (% change) (Nurr1 LBD Arg563Ala; Table 1, R563A relative to WT): −48%; Kd (Nurr1 LBD Arg563Ala; Table 2, Arg563Ala, read-out: Affinity (KD)): 8.3 µM
